These molecules were tested against RON (human) (Homo sapiens, UniProt Q04912) (assay: RON (human) AlphaScreen kinase assay, Km of ATP). Details: AlphaScreen, Km of ATP; read-out: RON biochemical IC50.
Assay type: biochemical
Procedure: (§1) Someone skilled in the art will appreciate that a variety of assay formats may be used to determine the activity of the compounds of this invention. For example, AlphaScreen (Amplified Luminescent Proximity Homogeneous Assay) technology was used with the kinases described below. Assay ATP concentrations for individual kinases are included in the text.
Desired compound is added in a final concentration of 1% DMSO with control being vehicle of DMSO alone. […] Enzyme is added to initiate the reaction and incubated for 30 min at RT. In subdued light, appropriate amount of PT66 donor and acceptor beads (diluted 1:260 from manufacturer's provision in a 25 mM Tris HCl (pH=7.5), 200 mM NaCl, 100 mM EDTA, 0.3% BSA buffer) are added to the wells. The plates, incubated for 1 h, are read on an AlphaQuest plate reader.

RON (human), sequence (Q04912 25-1400): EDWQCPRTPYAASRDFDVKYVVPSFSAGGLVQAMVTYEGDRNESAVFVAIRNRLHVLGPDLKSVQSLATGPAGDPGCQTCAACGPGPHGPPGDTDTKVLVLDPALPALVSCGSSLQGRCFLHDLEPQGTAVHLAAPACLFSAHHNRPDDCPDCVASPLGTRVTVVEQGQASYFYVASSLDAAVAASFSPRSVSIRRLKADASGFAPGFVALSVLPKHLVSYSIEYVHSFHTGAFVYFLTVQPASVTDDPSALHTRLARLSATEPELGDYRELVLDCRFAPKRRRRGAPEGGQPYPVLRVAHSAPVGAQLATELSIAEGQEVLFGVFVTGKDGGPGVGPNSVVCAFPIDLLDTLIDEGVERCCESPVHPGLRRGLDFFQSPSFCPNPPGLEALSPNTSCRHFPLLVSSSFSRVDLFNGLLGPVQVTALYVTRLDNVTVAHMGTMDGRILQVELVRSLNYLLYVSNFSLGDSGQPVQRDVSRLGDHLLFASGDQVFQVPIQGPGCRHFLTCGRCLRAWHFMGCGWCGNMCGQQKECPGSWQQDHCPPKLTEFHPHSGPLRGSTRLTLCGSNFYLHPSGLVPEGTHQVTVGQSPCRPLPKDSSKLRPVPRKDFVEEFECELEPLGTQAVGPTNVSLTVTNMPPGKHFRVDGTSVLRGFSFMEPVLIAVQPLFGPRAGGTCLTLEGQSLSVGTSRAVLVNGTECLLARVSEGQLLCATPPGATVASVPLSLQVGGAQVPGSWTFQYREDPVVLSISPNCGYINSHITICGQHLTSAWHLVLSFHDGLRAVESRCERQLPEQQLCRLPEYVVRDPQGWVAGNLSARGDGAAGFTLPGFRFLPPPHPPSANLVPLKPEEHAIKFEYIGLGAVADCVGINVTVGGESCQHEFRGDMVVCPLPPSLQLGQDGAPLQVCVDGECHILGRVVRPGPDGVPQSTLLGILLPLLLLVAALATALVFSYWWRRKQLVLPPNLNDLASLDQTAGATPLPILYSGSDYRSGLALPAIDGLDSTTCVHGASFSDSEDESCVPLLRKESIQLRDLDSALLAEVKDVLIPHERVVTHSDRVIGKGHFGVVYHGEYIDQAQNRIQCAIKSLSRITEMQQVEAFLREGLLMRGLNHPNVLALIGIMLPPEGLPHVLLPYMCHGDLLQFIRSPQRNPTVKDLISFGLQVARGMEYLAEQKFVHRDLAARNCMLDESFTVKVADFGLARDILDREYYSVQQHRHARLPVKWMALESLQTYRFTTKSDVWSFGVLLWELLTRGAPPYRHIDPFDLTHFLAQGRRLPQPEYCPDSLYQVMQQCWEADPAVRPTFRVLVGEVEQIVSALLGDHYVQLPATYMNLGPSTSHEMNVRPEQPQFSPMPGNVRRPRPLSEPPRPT

SMILES | IC50
Nc1ncc2c(-c3cnn(C4CCNCC4)c3)coc2c1O[C@H]1CCC[C@H]1c1cccc(F)c1 [Example 408] | 500 to 5000 nM
CC(=O)N1CCC(n2cc(-c3coc4c(O[C@H](C)c5c(Cl)ccc(F)c5Cl)c(N)ncc34)cn2)CC1 [Example 276, 1-[4-(4-{6-Amino-7-[(1R)-1-(2,6-dichloro-3-fluorophenyl)ethoxy]furo[3,2-c]pyridin-3-yl}-1H-pyrazol-1-yl)piperidin-1-yl]ethanone] | 500 to 5000 nM
CC(Oc1c(N)ncc2c(-c3cnn(C4CCNCC4)c3)coc12)c1c(Cl)c(F)cc(OCCCN)c1Cl (stereo not drawn) [Example 155, 7-{1-[3-(3-Aminopropoxy)-2,6-dichloro-5-fluorophenyl]ethoxy}-3-[1-(piperidin-4-yl)-1H-pyrazol-4-yl]furo[3,2-c]pyridin-6-amine] | < 500 nM
CC(C)CN1CC=C(c2coc3c(O[C@H](C)c4c(Cl)ccc(F)c4Cl)c(N)ncc23)CC1 [Example 41, 7-[(R)-1-(2,6-Dichloro-3-fluorophenyl)-ethoxy]-3-(1-isobutyl-1,2,3,6-tetrahydropyridin-4-yl)-furo[3,2-c]pyridin-6-ylamine] | < 500 nM
C[C@@H](Oc1c(N)ncc2c(-c3cnn([C@@H]4CCNC4)c3)coc12)c1c(Cl)ccc(F)c1Cl [Example 162, 7-[(1R)-1-(2,6-dichloro-3-fluorophenyl)ethoxy]-3-{1-[(3R)-pyrrolidin-3-yl]-1H-pyrazol-4-yl}furo[3,2-c]pyridin-6-amine] | < 500 nM
C[C@@H](Oc1c(N)ncc2c(C3=CCN(S(N)(=O)=O)CC3)coc12)c1c(Cl)ccc(F)c1Cl [Example 141, 4-{6-Amino-7-[(1R)-1-(2,6-dichloro-3-fluorophenyl)ethoxy]furo[3,2-c]pyridin-3-yl}-3,6-dihydropyridine-1(2H)-sulfonamide] | 500 to 5000 nM
CC(Oc1c(N)ncc2c(-c3cnn(C4CCNCC4)c3)coc12)c1c(Cl)ccc(Cl)c1Cl (stereo not drawn) [Example 349, 3-(1-Piperidin-4-yl-1H-pyrazol-4-yl)-7-[1-(2,3,6-trichlorophenyl)-ethoxy]furo[3,2-c]pyridin-6-ylamine] | < 500 nM
C[C@@H](Oc1c(N)ncc2c(-c3cccnc3)coc12)c1c(Cl)ccc(F)c1Cl [Example 126, 7-[(R)-(2,6-Dichloro-3-fluorophenyl)ethoxy]-3-pyridin-3-ylfuro[3,2-c]pyridin-6-ylamine] | 500 to 5000 nM
CNC(=O)c1coc2c(O[C@H](C)c3c(Cl)ccc(F)c3Cl)c(N)ncc12 [Example 178, 6-Amino-7-[(R)-1-(2,6-dichloro-3-fluorophenyl)ethoxy]furo[3,2-c]pyridine-3-carboxylic acid methylamide] | 500 to 5000 nM
Nc1ncc2c(-c3cnn(C4CCNCC4)c3)coc2c1OCc1c(Cl)ccc(F)c1Cl [Example 339, 7-(2,6-Dichloro-3-fluorobenzyloxy)-3-(1-piperidin-4-yl-1H-pyrazol-4-yl)-furo[3,2-c]pyridin-6-ylamine] | 500 to 5000 nM
C[C@@H](Oc1c(N)ncc2c(C3CCNCC3)coc12)c1c(Cl)ccc(F)c1Cl [Example 25, 7-[(R)-1-(2,6-Dichloro-3-fluorophenyl)-ethoxy]-3-piperidin-4-yl-furo[3,2-c]pyridin-6-ylamine] | 500 to 5000 nM
C[C@@H](Oc1c(N)ncc2c(C3=CCNCC3)coc12)c1c(Cl)ccc(F)c1Cl [Example 8, 7-[(R)-1-(2,6-Dichloro-3-fluorophenyl)ethoxy]-3-(1,2,3,6-tetrahydropyridin-4-yl)-furo[3,2-c]pyridin-6-ylamine] | 500 to 5000 nM
CC(Oc1c(N)ncc2c(-c3cnn(C4CCNCC4)c3)coc12)c1cc(F)ccc1Cl (stereo not drawn) [Example 336, 7-[1-(2-Chloro-5-fluorophenyl)ethoxy]-3-(1-piperidin-4-yl-1H-pyrazol-4-yl)-furo[3,2-c]pyridin-6-ylamine] | 500 to 5000 nM
CNC(=O)N1CC=C(c2coc3c(O[C@H](C)c4c(Cl)ccc(F)c4Cl)c(N)ncc23)CC1 [Example 35, 4-{6-Amino-7-[(R)-1-(2,6-dichloro-3-fluorophenyl)-ethoxy]-furo[3,2-c]pyridin-3-yl}-3,6-dihydro-2H-pyridine-1-carboxylic acid methylamide] | 500 to 5000 nM
CCCC(Oc1c(N)ncc2c(-c3cnn(C4CCNCC4)c3)coc12)c1c(Cl)ccc(F)c1Cl (stereo not drawn) [Example 357, 7-[1-(2,6-Dichloro-3-fluorophenyl)butoxy]-3-(1-piperidin-4-yl-1H-pyrazol-4-yl)furo[3,2-c]pyridin-6-ylamine] | < 500 nM

Next, values leading:

IC50 | SMILES
500 to 5000 nM | COC(=O)c1csc(-c2coc3c(O[C@H](C)c4c(Cl)ccc(F)c4Cl)c(N)ncc23)c1 [Example 292, 5-{6-Amino-7-[(R)-1-(2,6-dichloro-3-fluorophenyl)ethoxy]furo[3,2-c]pyridin-3-yl}thiophene-3-carboxylic acid methyl ester]
> 20000 nM | Nc1ncc2ccoc2c1OCc1nnc2ccc(-c3ccccc3)nn12 [Example 473, 7-[(6-phenyl[1,2,4]triazolo[4,3-b]pyridazin-3-yl)methoxy]furo[3,2-c]pyridin-6-amine]
< 500 nM | CC(Oc1c(N)ncc2c(-c3cnn(C4CCNCC4)c3)coc12)c1c(Cl)cc(Cl)cc1Cl (stereo not drawn) [Example 364, 3-(1-Piperidin-4-yl-1H-pyrazol-4-yl)-7-[1-(2,4,6-trichlorophenyl)-ethoxy]furo[3,2-c]pyridin-6-ylamine]
500 to 5000 nM | C#CCC(Oc1c(N)ncc2c(-c3cnn(C4CCNCC4)c3)coc12)c1c(Cl)ccc(F)c1Cl (stereo not drawn) [Example 353, 7-[1-(2,6-Dichloro-3-fluorophenyl)but-3-ynyloxy]-3-(1-piperidin-4-yl-1H-pyrazol-4-yl)furo[3,2-c]pyridin-6-ylamine]
< 500 nM | CC(Oc1c(N)ncc2c(-c3cnn(C4CCNCC4)c3)coc12)c1c(Cl)c(F)cc(F)c1Cl (stereo not drawn) [Example 154, 7-[1-(2,6-Dichloro-3,5-difluorophenyl)ethoxy]-3-[1-(piperidin-4-yl)-1H-pyrazol-4-yl]furo[3,2-c]pyridin-6-amine]
< 500 nM | C=CCC(Oc1c(N)ncc2c(-c3cnn(C4CCNCC4)c3)coc12)c1c(Cl)ccc(F)c1Cl (stereo not drawn) [Example 358, 7-[1-(2,6-Dichloro-3-fluorophenyl)but-3-enyloxy]-3-(1-piperidin-4-yl-1H-pyrazol-4-yl)furo[3,2-c]pyridin-6-ylamine]
< 500 nM | CCC(Oc1c(N)ncc2c(-c3cnn(C4CCNCC4)c3)coc12)c1c(Cl)ccc(F)c1Cl (stereo not drawn) [Example 350]
500 to 5000 nM | C[C@@H](Oc1c(N)ncc2c(-c3ccccn3)coc12)c1c(Cl)ccc(F)c1Cl [Example 137, 7-[(R)-1-(2,6-Dichloro-3-fluorophenyl)-ethoxy]-3-pyridin-2-ylfuro[3,2-c]pyridin-6-ylamine]
500 to 5000 nM | CC(Oc1c(N)ncc2c(-c3cnn(C4CCNCC4)c3)coc12)c1cccc(F)c1Cl (stereo not drawn) [Example 351, 7-[1-(2-Chloro-3-fluorophenyl)ethoxy]-3-(1-piperidin-4-yl-1H-pyrazol-4-yl)-furo[3,2-c]pyridin-6-ylamine]
500 to 5000 nM | C[C@@H](Oc1c(N)ncc2c(-c3cn[nH]c3)coc12)c1c(Cl)ccc(F)c1Cl [Example 6, 7-[(R)-1-(2,6-Dichloro-3-fluorophenyl)ethoxy]-3-(1H-pyrazol-4-yl)-furo[3,2-c]pyridin-6-ylamine]
500 to 5000 nM | C[C@@H](Oc1c(N)ncc2c(C3=CCN(C(=O)N(C)C)CC3)coc12)c1c(Cl)ccc(F)c1Cl [Example 26, 4-{6-Amino-7-[(R)-1-(2,6-dichloro-3-fluorophenyl)-ethoxy]-furo[3,2-c]pyridin-3-yl}-3,6-dihydro-2H-pyridine-1-carboxylic acid Dimethylamide]
500 to 5000 nM | COC(=O)N1CC=C(c2coc3c(O[C@H](C)c4c(Cl)ccc(F)c4Cl)c(N)ncc23)CC1 [Example 50, 4-{6-Amino-7-[(R)-1-(2,6-dichloro-3-fluorophenyl)-ethoxy]-furo[3,2-c]pyridin-3-yl}-3,6-dihydro-2H-pyridine-1-carboxylic acid methyl ester]
500 to 5000 nM | C[C@@H](Oc1c(N)ncc2c(-c3ccccc3)coc12)c1c(Cl)ccc(F)c1Cl [Example 3, 7-[(R)-1-(2,6-dichloro-3-fluorophenyl)-ethoxy]-3-phenyl-furo[3,2-c]pyridin-6-ylamine]
500 to 5000 nM | C[C@@H](Oc1c(N)ncc2c(-c3ccncc3)coc12)c1c(Cl)ccc(F)c1Cl [Example 127, 7-[(R)-(2,6-Dichloro-3-fluorophenyl)ethoxy]-3-pyridin-4-ylfuro[3,2-c]pyridin-6-ylamine]
500 to 5000 nM | CC(=O)N1CC=C(c2coc3c(O[C@H](C)c4c(Cl)ccc(F)c4Cl)c(N)ncc23)CC1 [Example 12, 1-(4-{6-Amino-7-[(R)-1-(2,6-dichloro-3-fluorophenyl)-ethoxy]-furo[3,2-c]pyridin-3-yl}-3,6-dihydro-2H-pyridin-1-yl)-ethanone]

Each molecule was assayed against MET (human) (Homo sapiens, UniProt P08581) (assay: MET (human) AlphaScreen kinase assay, Km of ATP). Details: AlphaScreen, Km of ATP; read-out: Met biochemical IC50.
MET (human), sequence (P08581 25-1390): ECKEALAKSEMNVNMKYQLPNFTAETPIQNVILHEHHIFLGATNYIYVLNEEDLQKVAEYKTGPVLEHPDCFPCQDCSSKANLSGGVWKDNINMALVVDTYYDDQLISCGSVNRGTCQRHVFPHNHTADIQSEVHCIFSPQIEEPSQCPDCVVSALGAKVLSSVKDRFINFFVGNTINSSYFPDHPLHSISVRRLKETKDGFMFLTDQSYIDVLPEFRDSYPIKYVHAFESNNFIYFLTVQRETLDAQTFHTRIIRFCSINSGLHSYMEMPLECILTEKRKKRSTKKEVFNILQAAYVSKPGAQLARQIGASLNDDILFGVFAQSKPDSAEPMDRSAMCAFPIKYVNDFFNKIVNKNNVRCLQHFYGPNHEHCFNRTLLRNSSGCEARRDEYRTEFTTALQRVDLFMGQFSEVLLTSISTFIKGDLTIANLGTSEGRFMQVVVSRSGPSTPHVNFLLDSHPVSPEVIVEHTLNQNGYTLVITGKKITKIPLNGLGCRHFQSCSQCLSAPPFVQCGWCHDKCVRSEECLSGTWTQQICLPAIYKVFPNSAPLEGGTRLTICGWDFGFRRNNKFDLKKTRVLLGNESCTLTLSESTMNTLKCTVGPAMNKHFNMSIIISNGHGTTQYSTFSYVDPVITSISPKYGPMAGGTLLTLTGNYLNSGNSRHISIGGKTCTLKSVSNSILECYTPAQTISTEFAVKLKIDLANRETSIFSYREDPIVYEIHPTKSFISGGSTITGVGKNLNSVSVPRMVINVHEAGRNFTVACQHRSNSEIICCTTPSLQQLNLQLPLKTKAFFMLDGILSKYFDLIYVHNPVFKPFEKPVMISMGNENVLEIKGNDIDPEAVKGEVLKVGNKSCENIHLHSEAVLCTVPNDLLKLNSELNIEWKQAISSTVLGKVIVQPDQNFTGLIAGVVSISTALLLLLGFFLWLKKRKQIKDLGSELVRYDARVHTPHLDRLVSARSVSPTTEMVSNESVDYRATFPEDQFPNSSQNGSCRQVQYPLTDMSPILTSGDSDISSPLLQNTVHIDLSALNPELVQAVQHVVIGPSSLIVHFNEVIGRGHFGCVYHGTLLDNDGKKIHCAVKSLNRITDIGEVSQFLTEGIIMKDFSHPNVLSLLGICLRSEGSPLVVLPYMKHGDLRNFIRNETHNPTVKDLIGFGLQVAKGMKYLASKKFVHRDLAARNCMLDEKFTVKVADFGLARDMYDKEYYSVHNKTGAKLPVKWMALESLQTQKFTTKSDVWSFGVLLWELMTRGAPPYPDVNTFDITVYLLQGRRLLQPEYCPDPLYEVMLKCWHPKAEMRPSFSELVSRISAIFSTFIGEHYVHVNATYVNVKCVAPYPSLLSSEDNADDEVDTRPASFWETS
Assay type: biochemical
Procedure: as §1
Desired compound is added in a final concentration of 1% DMSO with control being vehicle of DMSO alone. MET is diluted to the optimized concentration (optimized on a lot-by-lot basis) in an enzyme diluent buffer (50 mM Tris pH=7.4, 1% glycerol, 0.03% Brij35, 0.24 mM EGTA, 1 mM DTT, and 0.003% BSA). Enzyme is added to initiate the reaction and incubated for 60 min at RT. In subdued light, appropriate amount of PT66 donor and acceptor beads (diluted 1:260 from manufacturer's provision in a 25 mM Tris HCl (pH=7.5), 400 mM NaCl, 100 mM EDTA, 0.3% BSA buffer) are added to the wells. The plates, incubated for 1 h, are read on an AlphaQuest plate reader

SMILES | IC50
Nc1ncc2c(-c3cnn(C4CCNCC4)c3)coc2c1O[C@H]1CCC[C@H]1c1cccc(F)c1 [Example 408] | 500 to 5000 nM
CC(Oc1c(N)ncc2c(-c3cnn(C4CCNCC4)c3)coc12)c1c(Cl)c(F)cc(OCCCN)c1Cl (stereo not drawn) [Example 155, 7-{1-[3-(3-Aminopropoxy)-2,6-dichloro-5-fluorophenyl]ethoxy}-3-[1-(piperidin-4-yl)-1H-pyrazol-4-yl]furo[3,2-c]pyridin-6-amine] | < 500 nM
CC(C)CN1CC=C(c2coc3c(O[C@H](C)c4c(Cl)ccc(F)c4Cl)c(N)ncc23)CC1 [Example 41, 7-[(R)-1-(2,6-Dichloro-3-fluorophenyl)-ethoxy]-3-(1-isobutyl-1,2,3,6-tetrahydropyridin-4-yl)-furo[3,2-c]pyridin-6-ylamine] | < 500 nM
C[C@@H](Oc1c(N)ncc2c(-c3cnn([C@@H]4CCNC4)c3)coc12)c1c(Cl)ccc(F)c1Cl [Example 162, 7-[(1R)-1-(2,6-dichloro-3-fluorophenyl)ethoxy]-3-{1-[(3R)-pyrrolidin-3-yl]-1H-pyrazol-4-yl}furo[3,2-c]pyridin-6-amine] | < 500 nM

Results, then the molecule that gave them:

IC50 | SMILES
500 to 5000 nM | COC(=O)c1csc(-c2coc3c(O[C@H](C)c4c(Cl)ccc(F)c4Cl)c(N)ncc23)c1 [Example 292, 5-{6-Amino-7-[(R)-1-(2,6-dichloro-3-fluorophenyl)ethoxy]furo[3,2-c]pyridin-3-yl}thiophene-3-carboxylic acid methyl ester]
500 to 5000 nM | Nc1ncc2ccoc2c1OCc1nnc2ccc(-c3ccccc3)nn12 [Example 473, 7-[(6-phenyl[1,2,4]triazolo[4,3-b]pyridazin-3-yl)methoxy]furo[3,2-c]pyridin-6-amine]
